{"source": "patent US6071884A", "about": "“Pharmaceutical compositions and therapeutic methods” (Kirin Beer Kabushiki Kaisha, priority 1992, dated 2000)", "key": {"[1]": {"tested_on": "blood platelets", "test": "Blood-platelet-increasing effect upon monkey", "assay_type": "in vivo, croo monkey", "details": "for Number of Blood Platelets: mean ± SD", "protocol": "Subsequently, in order to examine the effect on Primates, the effect of Compound 33 was examined as a representative of the compounds represented by the formula (A), by using normal croo monkeys.\n(§1) Pharmacological Test 7: Blood-Platelet-Increasing Effect upon Monkey\n(§2) Six croo monkeys (female, 3 to 5 years old, 2.3 to 2.8 kg), 2 monkeys in one group were used. A vehicle, 0.1 mg/body of the compound 33 or 1 mg/body of the compound 33 was intravenously administered to the monkeys. 6 and 9 days after the administration, blood was collected by using a blood-collecting tube EDTA-2K, and the numbers of blood platelets, white blood cells and red blood cells contained in the peripheral blood were measured by using an E-2500/cs. The results are shown in Tables 7-1, 7-2 and 7-3, respectively."}, "[2]": {"tested_on": "red blood cells", "test": "Red blood cell count in monkey", "assay_type": "in vivo, croo monkey", "details": "for Number of Red Blood Cells: mean ± SD", "protocol": "as §1, §2"}, "[3]": {"tested_on": "white blood cells", "test": "White blood cell count in monkey", "assay_type": "in vivo, croo monkey", "details": "for Number of White Blood Cells: mean ± SD", "protocol": "as §1, §2"}, "[4]": {"test": "Acute toxicity", "assay_type": "in vivo", "details": "7 days", "protocol": "Test Example 2: Acute Toxicity\n0.1, 1.0 or 10 mg/kg of Compound 5 or 33 was intravenously administered to Crj:CD rats (male, 5 weeks old), 6 rats in one group. 7 days after the administration, a toxicity test was carried out."}}}
{"smiles": "CCCCCCCCCCCCCCCCCCCCCCCCCC(=O)N[C@@H](CO[C@H]1O[C@H](CO)[C@H](O)[C@H](O)[C@H]1O)[C@H](O)[C@H](O)CCCCCCCCCCCCCC", "note": "[Compound 33, (2S,3S,4R)-1-(α-D-galactopyranosyloxy)-2-hexacosanoylamino-3,4-octadecanediol]", "values": [{"measurement": "Number of Blood Platelets", "setting": "[1]; 0.1 mg/body i.v., after 6 days, vehicle 37.8 ± 8.5", "result": "56.4 ± 5.2 × 10^4 /μl"}, {"measurement": "Number of Blood Platelets", "setting": "[1]; 0.1 mg/body i.v., after 9 days, vehicle 37.4 ± 12.4", "result": "52.4 ± 9.0 × 10^4 /μl"}, {"measurement": "blood-platelet-increasing effect (in words)", "setting": "[1]; 0.1 mg/body, almost equal to 1 mg/body", "result": "remarkable blood-platelet-increasing effect"}, {"measurement": "Number of Blood Platelets", "setting": "[1]; 1 mg/body i.v., after 6 days, vehicle 37.8 ± 8.5", "result": "62.1 ± 15.9 × 10^4 /μl"}, {"measurement": "Number of Blood Platelets", "setting": "[1]; 1 mg/body i.v., after 9 days, vehicle 37.4 ± 12.4", "result": "64.7 ± 23.7 × 10^4 /μl"}, {"measurement": "Number of Red Blood Cells", "setting": "[2]; 0.1 mg/body i.v., after 6 days, vehicle 516 ± 6", "result": "498 ± 18 × 10^4 /μl"}, {"measurement": "Number of Red Blood Cells", "setting": "[2]; 0.1 mg/body i.v., after 9 days, vehicle 506 ± 1", "result": "538 ± 2 × 10^4 /μl"}, {"measurement": "red-blood-cell-increasing effect (in words)", "setting": "[2]; 0.1 mg/body, 9 days after administration", "result": "red-blood-cell-increasing effect was clearly found"}, {"measurement": "Number of Red Blood Cells", "setting": "[2]; 1 mg/body i.v., after 6 days, vehicle 516 ± 6", "result": "569 ± 40 × 10^4 /μl"}, {"measurement": "Number of Red Blood Cells", "setting": "[2]; 1 mg/body i.v., after 9 days, vehicle 506 ± 1", "result": "574 ± 37 × 10^4 /μl"}, {"measurement": "Number of White Blood Cells", "setting": "[3]; 0.1 mg/body i.v., after 6 days, vehicle 91 ± 31", "result": "156 ± 1 × 10^2 /μl"}, {"measurement": "Number of White Blood Cells", "setting": "[3]; 0.1 mg/body i.v., after 9 days, vehicle 94 ± 57", "result": "105 ± 15 × 10^2 /μl"}, {"measurement": "white-blood-cell-increasing effect (in words)", "setting": "[3]; 0.1 mg/body, 6 days after administration, equal to 1 mg/body", "result": "remarkable white-blood-cell-increasing effect"}, {"measurement": "Number of White Blood Cells", "setting": "[3]; 1 mg/body i.v., after 6 days, vehicle 91 ± 31", "result": "150 ± 37 × 10^2 /μl"}, {"measurement": "Number of White Blood Cells", "setting": "[3]; 1 mg/body i.v., after 9 days, vehicle 94 ± 57", "result": "169 ± 21 × 10^2 /μl"}, {"measurement": "death of rats", "setting": "[4]; 10 mg/kg i.v.", "result": "the rats did not die"}, {"measurement": "post-mortem examination", "setting": "[4]; i.v. 0.1, 1.0 or 10 mg/kg", "result": "no abnormality was found"}, {"measurement": "LD50 at 168 h", "setting": "[4]; rat, in vivo, iv, male rats", "result": "≥ 10", "unit": "mg/kg"}]}
